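Tested at 5 concentrations; 48 h exposure; 96-well plates; endpoints linearly interpolated, else capped at highest concentration. GI50: concentration for 50% inhibition of growth. TGI: concentration producing complete growth inhibition.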
Assays:
Test in all cases: NCI tumour cell line growth inhibition, 48 h
DLD-1 colon = system: DLD-1 colon
DMS 114 small cell lung = system: DMS 114 small cell lung
LXFL 529 NSCLC = system: LXFL 529 NSCLC
KM20L2 colon = system: KM20L2 colon
M19-MEL melanoma = system: M19-MEL melanoma
HOP-18 NSCLC = system: HOP-18 NSCLC
XF 498 CNS = system: XF 498 CNS
MDA-N = system: MDA-N
RXF-631 renal = system: RXF-631 renal

NCCN.O=N[O-].O=N[O-].O=N[O-].O=N[O-].[Co+3].[K+]
GI50 (DLD-1 colon): > 100 µM
TGI (DLD-1 colon): > 100 µM
GI50 (DMS 114 small cell lung): > 100 µM
TGI (DMS 114 small cell lung): > 100 µM
GI50 (LXFL 529 NSCLC): > 100 µM
TGI (LXFL 529 NSCLC): > 100 µM
GI50 (KM20L2 colon): > 100 µM
TGI (KM20L2 colon): > 100 µM
GI50 (M19-MEL melanoma): > 100 µM
TGI (M19-MEL melanoma): > 100 µM

CC(=O)OC12CCCCC1C1(CCCC1)NC2=O (stereo not given)
TGI (DLD-1 colon): > 100 µM
TGI (DMS 114 small cell lung): > 100 µM
TGI (HOP-18 NSCLC): > 100 µM
TGI (LXFL 529 NSCLC): > 100 µM
TGI (XF 498 CNS): > 100 µM
TGI (KM20L2 colon): > 100 µM
TGI (M19-MEL melanoma): > 100 µM

Cn1c(N)cc(=O)nc1N
TGI (MDA-N): > 100 µM

Cc1nc2c(=O)n(C)c(=O)nc-2n(-c2ccc(Cl)cc2)c1C
TGI (DLD-1 colon): > 100 µM
TGI (RXF-631 renal): > 100 µM
TGI (DMS 114 small cell lung): > 100 µM
TGI (HOP-18 NSCLC): > 100 µM
TGI (LXFL 529 NSCLC): > 100 µM
TGI (XF 498 CNS): > 100 µM
TGI (KM20L2 colon): > 100 µM
TGI (M19-MEL melanoma): > 100 µM

COC(=O)c1c(OC(=O)c2ccccc2)noc1CC(=O)OC1C=CCCC1 (stereo not given)
TGI (DLD-1 colon): > 100 µM
TGI (DMS 114 small cell lung): > 100 µM
TGI (HOP-18 NSCLC): > 100 µM
TGI (LXFL 529 NSCLC): > 100 µM
TGI (KM20L2 colon): > 100 µM

O=C1C2=C(Nc3cc([N+](=O)[O-])ccc3N2)OC1c1c[nH]c2ccc(COc3ccccc3)cc12 (stereo not given)
TGI (MDA-N): > 100 µM

CC/C(=C(\c1ccccc1)c1ccc(OCC[N+](C)(C)C)cc1)c1ccccc1
TGI (DLD-1 colon): 37.9 µM
TGI (RXF-631 renal): 41 µM
TGI (DMS 114 small cell lung): 21.7 µM
TGI (HOP-18 NSCLC): 26.2 µM
TGI (LXFL 529 NSCLC): 24.6 µM
TGI (KM20L2 colon): 31.1 µM
TGI (M19-MEL melanoma): 26.2 µM

O=C(Cc1nc2ccccc2s1)C(=O)Nc1ccccc1C(F)(F)F
TGI (DLD-1 colon): > 100 µM
TGI (DMS 114 small cell lung): > 100 µM
TGI (HOP-18 NSCLC): > 100 µM
TGI (LXFL 529 NSCLC): > 100 µM
TGI (XF 498 CNS): > 100 µM
TGI (KM20L2 colon): > 100 µM
TGI (M19-MEL melanoma): > 100 µM

Cc1nn(C(=O)CC(=O)Nc2ccccc2Cl)c(C)c1N=Nc1ccccc1Cl
TGI (DLD-1 colon): > 100 µM
TGI (RXF-631 renal): > 100 µM
TGI (DMS 114 small cell lung): > 100 µM
TGI (HOP-18 NSCLC): > 100 µM
TGI (LXFL 529 NSCLC): > 100 µM
TGI (XF 498 CNS): > 100 µM
TGI (KM20L2 colon): > 100 µM
TGI (M19-MEL melanoma): > 100 µM

Nc1nc(N)c2nn(-c3ccc(C(=O)O)cc3)nc2n1
TGI (MDA-N): > 100 µM

Nc1n[nH]c(=O)c2c1c(Br)cn2C1OC(CO)C(O)C1O (stereo not given)
TGI (DLD-1 colon): > 25.3 µM
TGI (RXF-631 renal): 6.59 µM
TGI (DMS 114 small cell lung): 17.8 µM
TGI (HOP-18 NSCLC): 65.6 µM
TGI (LXFL 529 NSCLC): > 100 µM
TGI (KM20L2 colon): > 100 µM
TGI (M19-MEL melanoma): 40.2 µM

COc1cc(C2C(C(=O)Nc3ccc(Cl)c(Cl)c3)=C(C)NC(C)=C2C(=O)Nc2ccc(Cl)c(Cl)c2)ccc1O
TGI (DLD-1 colon): 22.4 µM
TGI (DMS 114 small cell lung): 24.2 µM
TGI (LXFL 529 NSCLC): 21.2 µM
TGI (XF 498 CNS): 33.1 µM
TGI (KM20L2 colon): 54.7 µM
TGI (M19-MEL melanoma): 32 µM

O=C1c2ccccc2CC1C1(O)C(=O)Nc2c(Cl)cc(Cl)cc21 (stereo not given)
TGI (DLD-1 colon): > 100 µM
TGI (RXF-631 renal): > 100 µM
TGI (DMS 114 small cell lung): 68.8 µM
TGI (HOP-18 NSCLC): > 100 µM
TGI (LXFL 529 NSCLC): > 100 µM
TGI (XF 498 CNS): > 100 µM
TGI (KM20L2 colon): > 100 µM

CCc1cccc(C(C)C)c1C1C(=O)C(=O)N(c2nc3ccccc3s2)C(=O)C1=O
TGI (DLD-1 colon): > 100 µM
TGI (RXF-631 renal): > 100 µM
TGI (DMS 114 small cell lung): > 100 µM
TGI (HOP-18 NSCLC): > 100 µM
TGI (LXFL 529 NSCLC): > 100 µM
TGI (KM20L2 colon): > 100 µM
TGI (M19-MEL melanoma): > 100 µM

O=C1OC2C(O)COC2(OCc2c[nH]c3ccccc23)C1O (stereo not given) (tested in a mixture with another compound)
TGI (DLD-1 colon): > 100 µM
TGI (DMS 114 small cell lung): > 100 µM
TGI (HOP-18 NSCLC): > 100 µM
TGI (LXFL 529 NSCLC): > 100 µM
TGI (XF 498 CNS): > 100 µM
TGI (KM20L2 colon): > 100 µM
TGI (M19-MEL melanoma): > 100 µM

O=C1[C@@H]2C3C=CC([C@H]4C(=O)N(CO)C(=O)[C@@H]34)[C@@H]2C(=O)N1CO
TGI (DLD-1 colon): > 74.1 µM
TGI (DMS 114 small cell lung): > 62.2 µM
TGI (HOP-18 NSCLC): 86.4 µM
TGI (LXFL 529 NSCLC): > 100 µM
TGI (XF 498 CNS): > 100 µM
TGI (KM20L2 colon): > 31.6 µM
TGI (M19-MEL melanoma): > 58.8 µM

O=S(O)CCCSSCCCCSSCCCS(=O)O
TGI (DLD-1 colon): > 100 µM
TGI (DMS 114 small cell lung): > 100 µM
TGI (HOP-18 NSCLC): > 100 µM
TGI (LXFL 529 NSCLC): > 100 µM
TGI (XF 498 CNS): > 100 µM
TGI (KM20L2 colon): > 100 µM
TGI (M19-MEL melanoma): > 100 µM

COc1ccc(/C=C(\NC(=O)c2ccccc2)c2nc3ccccc3[nH]2)cc1
TGI (DLD-1 colon): > 100 µM
TGI (DMS 114 small cell lung): 90.6 µM
TGI (LXFL 529 NSCLC): > 100 µM
TGI (XF 498 CNS): 46.2 µM
TGI (KM20L2 colon): > 100 µM
TGI (M19-MEL melanoma): > 100 µM

C/C=C\C(C)=C/C(C)C(=O)CC(O)CC1CC(=O)NC(=O)C1 (stereo not given)
TGI (MDA-N): > 100 µM

Reference: PubChem BioAssay (NCI)
